Laboratory results reported in paper doi:10.1101/2021.04.08.439011v1 (biorxiv, 2021).

Key:
Conditions in all cases: 0.1 µM; binder
ARK5 = ARK5 (Homo sapiens, UniProt O60285)
BMPR1A = BMPR1A (Homo sapiens, UniProt P36894)
CDC2L5 = CDC2L5 (Homo sapiens, UniProt Q14004)
CSNK2A2 = CSNK2A2 (Homo sapiens, UniProt P19784)
EPHA5 = EPHA5 (Homo sapiens, UniProt P54756)
EPHB4 = EPHB4 (Homo sapiens, UniProt P54760)
ERK5 = ERK5 (Homo sapiens, UniProt Q13164)
FGFR3 = FGFR3 (Homo sapiens, UniProt P22607)
FGR = FGR (Homo sapiens, UniProt P09769)
FLT3(R834Q) = FLT3(R834Q) (Homo sapiens, UniProt P36888, R834Q)
HIPK2 = HIPK2 (Homo sapiens, UniProt Q9H2X6)
IRAK4 = IRAK4 (Homo sapiens, UniProt Q9NWZ3)
KIT(A829P) = KIT(A829P) (Homo sapiens, UniProt P10721, A829P)
KIT(D816V) = KIT(D816V) (Homo sapiens, UniProt P10721, D816V)
LIMK1 = LIMK1 (Homo sapiens, UniProt P53667)
MAP3K2 = MAP3K2 (Homo sapiens, UniProt Q9Y2U5)
MAP3K4 = MAP3K4 (Homo sapiens, UniProt Q9Y6R4)
MERTK = MERTK (Homo sapiens, UniProt Q12866)
Chain of MERTK (Q12866 whole entry): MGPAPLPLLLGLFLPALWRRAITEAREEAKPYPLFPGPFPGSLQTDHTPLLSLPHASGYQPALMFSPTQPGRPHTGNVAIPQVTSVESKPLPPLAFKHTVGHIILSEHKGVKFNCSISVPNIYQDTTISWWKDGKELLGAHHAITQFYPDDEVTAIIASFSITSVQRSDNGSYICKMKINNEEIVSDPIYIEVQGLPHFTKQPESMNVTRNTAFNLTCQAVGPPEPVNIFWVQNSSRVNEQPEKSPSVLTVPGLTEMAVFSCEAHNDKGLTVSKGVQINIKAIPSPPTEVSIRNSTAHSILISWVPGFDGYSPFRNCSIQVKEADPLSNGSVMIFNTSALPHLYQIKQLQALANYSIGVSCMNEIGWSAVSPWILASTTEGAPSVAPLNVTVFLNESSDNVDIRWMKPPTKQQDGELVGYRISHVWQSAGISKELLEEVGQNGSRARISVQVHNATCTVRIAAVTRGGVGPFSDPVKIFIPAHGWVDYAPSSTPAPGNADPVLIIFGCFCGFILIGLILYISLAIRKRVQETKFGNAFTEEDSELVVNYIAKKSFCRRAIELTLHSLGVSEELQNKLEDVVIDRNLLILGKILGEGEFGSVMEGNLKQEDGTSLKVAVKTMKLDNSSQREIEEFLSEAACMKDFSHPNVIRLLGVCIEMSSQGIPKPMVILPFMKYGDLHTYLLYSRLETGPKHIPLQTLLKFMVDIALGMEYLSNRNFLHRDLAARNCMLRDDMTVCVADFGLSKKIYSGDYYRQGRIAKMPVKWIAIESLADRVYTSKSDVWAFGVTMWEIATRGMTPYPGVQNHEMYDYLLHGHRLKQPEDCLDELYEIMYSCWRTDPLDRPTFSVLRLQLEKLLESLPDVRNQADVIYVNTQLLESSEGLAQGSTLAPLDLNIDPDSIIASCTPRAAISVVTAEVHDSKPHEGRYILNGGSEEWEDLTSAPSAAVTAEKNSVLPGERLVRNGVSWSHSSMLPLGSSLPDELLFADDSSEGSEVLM

MUSK = MUSK (Homo sapiens, UniProt O15146)
NEK5 = NEK5 (Homo sapiens, UniProt Q6P3R8)
NEK6 = NEK6 (Homo sapiens, UniProt Q9HC98)
NEK7 = NEK7 (Homo sapiens, UniProt Q8TDX7)
Chain of NEK7 (Q8TDX7 whole entry): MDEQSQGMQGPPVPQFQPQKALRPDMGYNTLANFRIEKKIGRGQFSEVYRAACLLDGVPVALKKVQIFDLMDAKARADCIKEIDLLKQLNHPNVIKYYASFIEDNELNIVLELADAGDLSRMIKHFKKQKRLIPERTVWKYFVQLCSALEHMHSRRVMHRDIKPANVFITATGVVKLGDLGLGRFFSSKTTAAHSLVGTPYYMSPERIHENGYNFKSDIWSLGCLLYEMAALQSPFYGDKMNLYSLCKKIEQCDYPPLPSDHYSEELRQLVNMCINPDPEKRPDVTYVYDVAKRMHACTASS

NEK9 = NEK9 (Homo sapiens, UniProt Q8TD19)
SNRK = SNRK (Homo sapiens, UniProt Q9NRH2)
SRPK3 = SRPK3 (Homo sapiens, UniProt Q9UPE1)
STK4 = STK4 (Homo sapiens, UniProt Q13043)
TLK1 = TLK1 (Homo sapiens, UniProt Q9UKI8)
VPS34 = VPS34 (Homo sapiens, UniProt Q8NEB9)
WEE2 = WEE2 (Homo sapiens, UniProt P0C1S8)
WNK2 = WNK2 (Homo sapiens, UniProt Q9Y3S1)
Chain of WNK2 (Q9Y3S1 whole entry): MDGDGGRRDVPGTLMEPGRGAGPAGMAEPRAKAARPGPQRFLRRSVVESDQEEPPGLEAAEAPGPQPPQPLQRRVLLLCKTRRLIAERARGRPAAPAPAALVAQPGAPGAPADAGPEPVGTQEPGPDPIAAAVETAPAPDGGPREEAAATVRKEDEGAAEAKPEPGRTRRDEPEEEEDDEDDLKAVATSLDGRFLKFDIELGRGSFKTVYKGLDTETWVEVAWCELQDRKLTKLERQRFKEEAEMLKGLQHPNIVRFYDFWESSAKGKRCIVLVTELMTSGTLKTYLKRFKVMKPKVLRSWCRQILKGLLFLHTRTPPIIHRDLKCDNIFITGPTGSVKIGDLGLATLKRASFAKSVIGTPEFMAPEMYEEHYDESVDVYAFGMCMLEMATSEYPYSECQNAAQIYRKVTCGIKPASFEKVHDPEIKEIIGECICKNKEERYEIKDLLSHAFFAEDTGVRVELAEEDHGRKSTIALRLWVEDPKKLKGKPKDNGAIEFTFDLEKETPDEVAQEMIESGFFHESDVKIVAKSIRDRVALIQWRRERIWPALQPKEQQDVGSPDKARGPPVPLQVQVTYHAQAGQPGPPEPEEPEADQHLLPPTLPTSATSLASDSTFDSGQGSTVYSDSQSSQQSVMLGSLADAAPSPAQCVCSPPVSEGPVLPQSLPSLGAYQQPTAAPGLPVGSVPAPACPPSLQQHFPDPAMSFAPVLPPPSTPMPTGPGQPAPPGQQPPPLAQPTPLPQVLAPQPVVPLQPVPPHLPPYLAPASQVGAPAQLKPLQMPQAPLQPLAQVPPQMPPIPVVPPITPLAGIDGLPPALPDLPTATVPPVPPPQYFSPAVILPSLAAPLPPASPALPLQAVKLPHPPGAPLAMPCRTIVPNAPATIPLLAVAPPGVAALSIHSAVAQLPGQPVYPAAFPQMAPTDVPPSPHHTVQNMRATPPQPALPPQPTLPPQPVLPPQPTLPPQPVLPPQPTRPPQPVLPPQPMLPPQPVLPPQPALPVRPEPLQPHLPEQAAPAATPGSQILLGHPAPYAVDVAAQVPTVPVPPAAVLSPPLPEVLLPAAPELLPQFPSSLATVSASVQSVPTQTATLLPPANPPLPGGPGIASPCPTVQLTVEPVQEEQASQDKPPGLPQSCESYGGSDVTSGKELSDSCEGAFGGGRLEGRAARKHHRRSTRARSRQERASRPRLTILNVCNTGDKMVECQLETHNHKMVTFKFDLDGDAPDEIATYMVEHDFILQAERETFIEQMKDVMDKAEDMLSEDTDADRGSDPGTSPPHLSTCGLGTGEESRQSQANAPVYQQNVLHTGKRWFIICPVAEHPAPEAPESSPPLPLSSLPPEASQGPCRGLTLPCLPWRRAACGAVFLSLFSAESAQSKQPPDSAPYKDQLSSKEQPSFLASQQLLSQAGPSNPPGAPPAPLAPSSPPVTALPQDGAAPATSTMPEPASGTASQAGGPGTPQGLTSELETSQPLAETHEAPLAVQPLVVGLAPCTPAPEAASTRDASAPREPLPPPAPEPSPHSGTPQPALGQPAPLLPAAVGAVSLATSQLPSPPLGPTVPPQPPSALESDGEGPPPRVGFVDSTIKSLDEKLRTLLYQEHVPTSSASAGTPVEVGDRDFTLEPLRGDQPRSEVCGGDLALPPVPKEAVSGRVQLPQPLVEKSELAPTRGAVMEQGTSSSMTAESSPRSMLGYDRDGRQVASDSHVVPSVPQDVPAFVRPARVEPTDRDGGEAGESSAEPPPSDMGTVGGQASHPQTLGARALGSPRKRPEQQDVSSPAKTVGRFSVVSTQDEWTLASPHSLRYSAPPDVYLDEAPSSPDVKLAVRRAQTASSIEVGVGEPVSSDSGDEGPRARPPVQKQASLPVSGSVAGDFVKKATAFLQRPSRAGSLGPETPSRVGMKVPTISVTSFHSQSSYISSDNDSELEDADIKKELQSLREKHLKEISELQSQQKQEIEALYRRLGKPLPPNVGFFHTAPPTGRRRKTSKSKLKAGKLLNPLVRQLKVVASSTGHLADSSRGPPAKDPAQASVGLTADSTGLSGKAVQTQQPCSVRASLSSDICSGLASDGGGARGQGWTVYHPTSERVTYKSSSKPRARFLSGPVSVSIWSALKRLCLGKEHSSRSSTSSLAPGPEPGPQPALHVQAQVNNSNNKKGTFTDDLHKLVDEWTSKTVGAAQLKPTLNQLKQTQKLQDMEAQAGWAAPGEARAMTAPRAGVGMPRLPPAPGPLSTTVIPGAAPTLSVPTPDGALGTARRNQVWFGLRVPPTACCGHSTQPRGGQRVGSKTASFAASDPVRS

WNK4 = WNK4 (Homo sapiens, UniProt Q96J92)
Chain of WNK4 (Q96J92 whole entry): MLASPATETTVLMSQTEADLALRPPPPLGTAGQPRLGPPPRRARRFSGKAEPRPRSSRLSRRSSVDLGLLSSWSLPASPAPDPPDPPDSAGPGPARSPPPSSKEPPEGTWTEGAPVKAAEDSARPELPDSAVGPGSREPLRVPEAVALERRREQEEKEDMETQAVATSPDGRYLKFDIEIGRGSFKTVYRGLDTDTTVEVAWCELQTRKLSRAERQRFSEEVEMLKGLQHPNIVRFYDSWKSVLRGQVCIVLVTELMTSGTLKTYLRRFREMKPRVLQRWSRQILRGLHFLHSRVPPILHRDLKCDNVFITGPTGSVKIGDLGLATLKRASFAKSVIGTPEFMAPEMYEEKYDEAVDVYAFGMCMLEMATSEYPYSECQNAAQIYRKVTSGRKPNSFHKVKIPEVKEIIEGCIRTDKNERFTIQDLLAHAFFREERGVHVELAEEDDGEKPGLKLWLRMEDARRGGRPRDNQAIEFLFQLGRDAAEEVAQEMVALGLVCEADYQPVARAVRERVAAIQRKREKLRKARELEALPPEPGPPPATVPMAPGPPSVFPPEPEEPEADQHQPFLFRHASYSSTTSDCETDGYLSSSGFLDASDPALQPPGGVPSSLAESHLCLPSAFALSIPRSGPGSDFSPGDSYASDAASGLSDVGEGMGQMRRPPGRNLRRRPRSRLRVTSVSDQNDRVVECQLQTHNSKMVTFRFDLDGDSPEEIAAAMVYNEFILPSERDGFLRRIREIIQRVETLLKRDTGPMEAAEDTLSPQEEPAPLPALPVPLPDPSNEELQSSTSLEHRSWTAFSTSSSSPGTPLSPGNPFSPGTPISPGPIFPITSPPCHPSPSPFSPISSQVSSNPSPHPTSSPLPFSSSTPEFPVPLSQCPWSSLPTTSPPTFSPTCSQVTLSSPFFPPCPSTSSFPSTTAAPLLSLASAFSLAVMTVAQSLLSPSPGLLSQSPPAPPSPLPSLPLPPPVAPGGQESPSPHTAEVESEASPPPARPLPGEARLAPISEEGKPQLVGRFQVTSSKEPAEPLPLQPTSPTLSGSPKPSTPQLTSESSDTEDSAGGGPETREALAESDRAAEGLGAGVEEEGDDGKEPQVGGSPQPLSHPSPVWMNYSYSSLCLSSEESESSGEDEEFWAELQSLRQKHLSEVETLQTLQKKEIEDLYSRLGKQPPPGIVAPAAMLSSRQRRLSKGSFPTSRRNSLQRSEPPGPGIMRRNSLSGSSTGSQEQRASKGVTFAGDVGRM

## CNc1ncc2cc(-c3ccc(-c4cccc(C)n4)cc3Cl)c(=O)n(C[C@H]3OC[C@H](N)CO3)c2n1 [compound 6, G-5555]
ARK5
  Percent Control: 87%
BMPR1A
  Percent Control: 90%
CDC2L5
  Percent Control: 79%
CSNK2A2
  Percent Control: 96%
EPHA5
  Percent Control: 100%
EPHB4
  Percent Control: 100%
ERK5
  Percent Control: 98%
FGFR3
  Percent Control: 100%
FGR
  Percent Control: 100%
FLT3(R834Q)
  Percent Control: 96%
HIPK2
  Percent Control: 100%
IRAK4
  Percent Control: 95%
KIT(A829P)
  Percent Control: 81%
KIT(D816V)
  Percent Control: 100%
LIMK1
  Percent Control: 93%
MAP3K2
  Percent Control: 97%
MAP3K4
  Percent Control: 84%
MERTK
  Percent Control: 95%
MUSK
  Percent Control: 100%
NEK5
  Percent Control: 100%
NEK6
  Percent Control: 100%
NEK7
  Percent Control: 100%
NEK9
  Percent Control: 100%
SNRK
  Percent Control: 84%
SRPK3
  Percent Control: 100%
STK4
  Percent Control: 90%
TLK1
  Percent Control: 100%
VPS34
  Percent Control: 86%
WEE2
  Percent Control: 100%
WNK2
  Percent Control: 100%
WNK4
  Percent Control: 96%
